The results in this text go back to paper PMC11091889, “Silver Organometallics that are Highly Potent Thioredoxin and Glutathione Reductase Inhibitors: Exploring the Correlations of Solution Chemistry with the Strong Antibacterial Effects” (ACS Infectious Diseases, 2024).

Data set [1] has as its target T1, glutathione reductase (GR) from E. coli (Escherichia coli, UniProt P06715).
T1 construct: purchased Antibodies online
T1 sequence (P06715 1-450): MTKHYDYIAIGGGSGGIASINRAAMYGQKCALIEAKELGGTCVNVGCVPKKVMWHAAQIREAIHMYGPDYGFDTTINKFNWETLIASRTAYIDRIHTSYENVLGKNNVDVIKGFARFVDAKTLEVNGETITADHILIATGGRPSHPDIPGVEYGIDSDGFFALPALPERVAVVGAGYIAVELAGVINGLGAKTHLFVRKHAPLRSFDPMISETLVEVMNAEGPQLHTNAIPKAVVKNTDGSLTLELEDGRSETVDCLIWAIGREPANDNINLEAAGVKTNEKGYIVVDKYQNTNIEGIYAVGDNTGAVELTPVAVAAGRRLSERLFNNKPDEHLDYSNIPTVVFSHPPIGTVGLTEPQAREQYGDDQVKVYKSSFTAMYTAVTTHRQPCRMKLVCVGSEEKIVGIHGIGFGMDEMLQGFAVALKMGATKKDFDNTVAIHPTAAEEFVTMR
In words: GR inhibition assay (DTNB reduction). The format is biochemical. The note with it: ± standard deviation, n = 3, 75 min preincubation.
Protocol: (§2) The inhibition of purified E. coli thioredoxin reductase (TrxR) and glutathione reductase (GR) from both E. coli and baker’s yeast was determined according to a previously applied procedure.[59],[60]
(§3) The TrxR (E. coli) and GR (baker’s yeast and E. coli) inhibition assays were performed according to previously published procedures.[62],[75] The assays are partly based on the procedure developed by Lu et al.[60] and make use of the reduction of 5,5′-dithiobis(2-nitrobenzoic acid) (DTNB). Solutions of E. coli TrxR (35.4 U/mL) and E. coli thioredoxin (Trx) (156 μg/mL) (both purchased from Sigma-Aldrich) or baker’s yeast GR (0,08 U/mL, Sigma-Aldrich) or E. coli GR (4.2 U/ml, Antibodies online) and GSSG (0.28 mM, Sigma-Aldrich) in distilled water were prepared, as were fresh 2 mM stock solutions of the test compounds in DMSO. Then, solutions with several concentrations of the test compounds in DMSO were prepared, and 35 μL of each solution was diluted with 965 μL of TE buffer (Tris–HCl 50 mM, EDTA 1 mM, pH 7.5). These solutions (20 μL) or TE buffer without the test compounds (20 μL, as control) were mixed with the TrxR or GR solutions (10 μL), the Trx or GSSG solutions (10 μL), and a solution of NADPH (200 μM) in TE buffer (100 μL) in a well on a 96-well plate. As a blank solution, 200 μM NADPH in TE buffer (100 μL) mixed with a DMSO/buffer mixture (40 μL) was used (final concentrations of DMSO: 0.5% v/v). The plate was incubated for 75 min at 25 °C with moderate shaking. After incubation, 100 μL of a reaction mixture (TE buffer containing 200 μM NADPH and 5 mM DTNB) was added to each well to initiate the reaction. After thorough mixing, the formation of 5-TNB was monitored by a microplate reader at 405 nm in 35 s intervals (10 measurements). The values were corrected by subtraction of the blank solution absorption values. The increase in the concentration of 5-TNB followed a linear trend (r^2 ≥ 0.990), and the enzymatic activities were calculated as the gradients (increase in absorbance per second) thereof. […] The inhibition is presented as the mean IC50 values and standard deviations obtained in three independent experiments.

Data set [2] relates to S. aureus MRSA (DSM 11822, ICB 25701). As to the kind of experiment: microbe, parasite or virus in culture. Format: cell-based, methicillin resistant S. aureus. The following applies: n = 3, TSY; for MIC MRSA / EC50: mean ± standard error; for MIC MRSA / MIC MRSA (value in brackets): 22 h; for EC50: read-out: EC50 MRSA. The method in brief: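 Broth microdilution in TSY (30 g/L trypticase soy broth, 3 g/L yeast extract, pH 7.0–7.2), inoculum 2–8 × 10^5 CFU/mL, compounds serially diluted 64 to 1 μg/mL, 22 h at 37 °C. Growth read as absorbance at 600 nm; MIC and EC50 obtained by curve fitting, three independent experiments.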

The subject of data set [3] is P. aeruginosa PA7 (DSM 24068). As to the kind of experiment: microbe, parasite or virus in culture. The format is cell-based, Pseudomonas aeruginosa. The following applies: n = 3, MHB; for MIC P. aeruginosa / EC50: mean ± standard error; for MIC P. aeruginosa / MIC P. aeruginosa (value in brackets): 22 h; for EC50: read-out: EC50 P. aeruginosa. The method in brief:
(§1)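 Broth microdilution used 2–8 × 10^5 CFU/mL inocula, with compounds serially diluted 64 to 1 μg/mL and incubated 22 h at 37 °C, read at 600 nm. A. baumannii, K. pneumoniae and P. aeruginosa were grown in MHB pH 7.4; E. faecium was grown in TSY pH 7.0–7.2. MIC and EC50 were obtained by curve fitting from three independent experiments.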

Data set [4] concerns the target T2, glutathione reductase (GR) from baker's yeast (Saccharomyces cerevisiae, UniProt P41921).
T2 construct: purchased Sigma-Aldrich
T2 sequence (P41921 17-483 limits assumed): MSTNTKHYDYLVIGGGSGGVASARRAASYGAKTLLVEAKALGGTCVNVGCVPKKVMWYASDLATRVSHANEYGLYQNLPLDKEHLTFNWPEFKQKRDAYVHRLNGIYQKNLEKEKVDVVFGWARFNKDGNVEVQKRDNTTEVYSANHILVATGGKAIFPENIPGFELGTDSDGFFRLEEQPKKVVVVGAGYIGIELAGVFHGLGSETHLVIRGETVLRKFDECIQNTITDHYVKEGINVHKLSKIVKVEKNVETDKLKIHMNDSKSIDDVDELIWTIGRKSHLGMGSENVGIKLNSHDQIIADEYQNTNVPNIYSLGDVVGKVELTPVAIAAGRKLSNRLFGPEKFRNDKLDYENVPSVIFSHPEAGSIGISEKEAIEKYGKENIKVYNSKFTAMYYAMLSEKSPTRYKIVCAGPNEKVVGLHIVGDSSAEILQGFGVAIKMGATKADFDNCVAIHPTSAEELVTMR
As to the kind of experiment: GR inhibition assay (DTNB reduction). The note with it: ± standard deviation, n = 3, 75 min preincubation. The format is biochemical.
Protocol: as §2, §3

In data set [5] the test system is E. faecium (DSM 20477, ATCC 19434). In words: Broth microdilution antibacterial assay. Format: cell-based, Enterococcus faecium. The following applies: n = 3, TSY; for MIC E. faecium / EC50: mean ± standard error; for MIC E. faecium / MIC E. faecium (value in brackets): 22 h; for EC50: read-out: EC50 E. faecium. The method in brief:
as §1
In general terms: Broth dilution looks for growth in wells or tubes with falling amounts of substance.

The subject of the next data set is Caco-2 cells. The note with it: read-out: Cytotoxicity IC50 Caco-2; 24 h, almost confluent cell layers, highest concentration 100 μM. Here is the method:
Besides the antimicrobial effects, the toxic effects of silver ions have to be considered.[10],[12] As a primary evaluation of the cell toxicity triggered by silver NHC complexes, almost confluent cell layers of CaCo-2 cells were grown and challenged for 24 h with the silver complexes and also with the silver reference compounds AgNO3 and SSD (see Figure 6).
Caco-2 cells were grown as almost confluent monolayers in 96-well plates. The complexes were dissolved in wells of 96-well plates as stock solutions in DMSO (0.2% v/v) diluted with DMEM cell culture medium, which was supplemented with 10% fetal calf serum and 50 mg/L gentamicin. The cell layers were incubated with the drug containing media for 24 h at 37 °C/5% CO2 in an incubator. The cell viability was determined using crystal violet (0.02%) staining and was calculated as percentage of an untreated control. Results were obtained in three independent experiments.

`CC(C)n1[c](=[Ag][Cl])n(Cc2ccccn2)c2ccccc21` [3a, Chlorido (1-Isopropyl-3-(pyridin-2-ylmethyl)-benzimidazol-2-ylidene) Silver(I)] showed an IC50 in data set [1] of 0.032 ± 0.002 µM. Further, in data set [2], the “MIC MRSA” value came to 162 ± 0.0 µM, the EC50 is 88.6 ± 1.6 µM and the “MIC MRSA (value in brackets)” value was 64 µg/mL. Further, in data set [3], the “MIC P. aeruginosa” value stood at 81.1 ± 0.0 µM, the EC50 worked out at 39.1 ± 8.8 µM and the “MIC P. aeruginosa (value in brackets)” value was determined as 32 µg/mL. This compound also yielded an IC50 in data set [4] of 0.044 ± 0.004 µM. In data set [5], the “MIC E. faecium” value worked out at 162 ± 0.0 µM, the EC50 turned out to be 139 ± 0.4 µM and the “MIC E. faecium (value in brackets)” value stood at 64 µg/mL.
Turning to `CC(C)n1[c](=[Ag][I])n(Cc2ccccn2)c2ccccc21` [3c, Iodido (1-Isopropyl-3-(pyridin-2-ylmethyl)-benzimidazol-2-ylidene) Silver(I)], half-maximal inhibition in data set [1] (IC50) was put at 0.039 ± 0.006 µM. In addition, the IC50 in the data set with Caco-2 cells is greater than 100 µM. Also, in data set [2], the “MIC MRSA” value is greater than 132 µM, the EC50 was greater than 132 µM and the “MIC MRSA (value in brackets)” value is greater than 64 µg/mL. Besides, in data set [3], the “MIC P. aeruginosa” value was 11.0 ± 2.7 µM, the EC50 was 6 ± 1 µM and the “MIC P. aeruginosa (value in brackets)” value was 5 µg/mL. Also, the IC50 in data set [4] stood at 0.049 ± 0.004 µM. Moreover, in data set [5], the “MIC E. faecium” value worked out at 65.8 ± 0.0 µM, the EC50 came to 60.9 ± 0.1 µM and the “MIC E. faecium (value in brackets)” value was determined as 32 µg/mL.
In data set [1], `CC(C)n1[c](=[Ag][Br])n(Cc2ccccn2)c2ccccc21` [3b, Bromido (1-Isopropyl-3-(pyridin-2-ylmethyl)-benzimidazol-2-ylidene) Silver(I)] yielded an IC50 of 0.041 ± 0.007 µM. Moreover, in data set [2], the “MIC MRSA” value is 146 ± 0.0 µM, the EC50 amounted to 78.8 ± 0.4 µM and the “MIC MRSA (value in brackets)” value worked out at 64 µg/mL. Besides, in data set [3], the “MIC P. aeruginosa” value came out at 60.7 ± 12.1 µM, the EC50 was found to be 30 ± 6.9 µM and the “MIC P. aeruginosa (value in brackets)” value is 26 µg/mL. For the same compound, the IC50 in data set [4] was 0.041 ± 0.006 µM. In data set [5], the “MIC E. faecium” value is 146 ± 0.0 µM, the EC50 was 123 ± 0.4 µM and the “MIC E. faecium (value in brackets)” value is 64 µg/mL.
As to `COCCn1[c](=[Ag][I])n(Cc2ccccn2)c2ccccc21` [4c, Iodido (1-(2-Methoxyethyl)-3-(pyridin-2-ylmethyl)-benzimidazol-2-ylidene) Silver(I)], the IC50 in the data set on Caco-2 cells was greater than 100 µM. In data set [2], the “MIC MRSA” value was greater than 128 µM, the EC50 is greater than 128 µM and the “MIC MRSA (value in brackets)” value is greater than 64 µg/mL. In data set [3], the “MIC P. aeruginosa” value was determined as 18.6 ± 7.0 µM, the EC50 turned out to be 4.9 ± 1.2 µM and the “MIC P. aeruginosa (value in brackets)” value was 9 µg/mL. Further, in data set [5], the “MIC E. faecium” value is greater than 128 µM, the EC50 was greater than 128 µM and the “MIC E. faecium (value in brackets)” value was greater than 64 µg/mL.

Usually IC50 stands for the midpoint of a concentration-inhibition curve. The EC50 is the midpoint of the concentration-response curve.
